Experiment: xn = mol fraction of the nth substance listed
Conditions: 100 kPa

CC(O)C(=O)[O-].CCOCCn1cc[n+](C)c1 + O
Conditions	electrical conductivity [S/m]	viscosity [mPa·s]
288.15 K, x1 = 0.8091	0.243	86.2
288.15 K, x1 = 0.8366	0.214	93.5
288.15 K, x1 = 0.87	0.185	103
288.15 K, x1 = 0.9014	0.157	110.4
288.15 K, x1 = 0.9386	0.127	119.7
288.15 K, x1 = 1	0.082	132.7
293.15 K, x1 = 0.87	0.229	80.3
293.15 K, x1 = 0.9386	0.172	90.8
293.15 K, x1 = 1	0.123	99.1
298.15 K, x1 = 0.8091	0.336	52.9
298.15 K, x1 = 0.8366	0.306	56.21
298.15 K, x1 = 0.9014	0.248	63.93
298.15 K, x1 = 0.9386	0.218	68.22
298.15 K, x1 = 1	0.171	74.1
303.15 K, x1 = 0.8091	0.389	41.86
303.15 K, x1 = 0.8366	0.358	44.21
303.15 K, x1 = 0.87	0.33	47.25
303.15 K, x1 = 0.9014	0.302	49.83
303.15 K, x1 = 1	0.228	56.72
308.15 K, x1 = 0.9014	0.397	37.68
308.15 K, x1 = 0.9386	0.368	40.01
308.15 K, x1 = 1	0.314	43.14
313.15 K, x1 = 0.8091	0.572	25.13
313.15 K, x1 = 0.8366	0.544	26.5
313.15 K, x1 = 0.87	0.516	28.21
313.15 K, x1 = 0.9014	0.488	29.62
313.15 K, x1 = 0.9386	0.463	31.44
313.15 K, x1 = 1	0.418	33.82
318.15 K, x1 = 0.8091	0.713	18.65
318.15 K, x1 = 0.8366	0.681	19.82
318.15 K, x1 = 0.87	0.648	21.2
318.15 K, x1 = 0.9386	0.587	24.02
318.15 K, x1 = 1	0.536	26.08

CC(=O)[O-].CCOCCn1cc[n+](C)c1 + O
Conditions	electrical conductivity [S/m]	viscosity [mPa·s]
288.15 K, x1 = 0.8294	0.352	41.8
288.15 K, x1 = 0.852	0.313	42.73
288.15 K, x1 = 0.8822	0.271	43.97
288.15 K, x1 = 0.9125	0.232	45.18
288.15 K, x1 = 0.9447	0.195	46.51
288.15 K, x1 = 1	0.13	48.34
293.15 K, x1 = 0.8294	0.415	33.23
293.15 K, x1 = 0.852	0.377	33.91
293.15 K, x1 = 0.8822	0.329	34.81
293.15 K, x1 = 1	0.18	38.07
298.15 K, x1 = 0.8294	0.463	26.38
298.15 K, x1 = 0.852	0.427	26.91
298.15 K, x1 = 0.8822	0.384	27.59
298.15 K, x1 = 0.9125	0.347	28.28
298.15 K, x1 = 1	0.247	30.01
303.15 K, x1 = 0.8294	0.551	20.99
303.15 K, x1 = 0.852	0.513	21.43
303.15 K, x1 = 0.8822	0.471	22
303.15 K, x1 = 0.9125	0.431	22.55
303.15 K, x1 = 1	0.329	23.97
308.15 K, x1 = 0.8294	0.674	16.9
308.15 K, x1 = 0.852	0.633	17.25
308.15 K, x1 = 0.9125	0.544	18.18
308.15 K, x1 = 0.9447	0.506	18.66
308.15 K, x1 = 1	0.435	19.35
313.15 K, x1 = 0.8294	0.804	13.77
313.15 K, x1 = 0.9125	0.676	14.84
313.15 K, x1 = 0.9447	0.638	15.22
318.15 K, x1 = 0.8294	0.985	11.31
318.15 K, x1 = 0.852	0.941	11.54
318.15 K, x1 = 0.8822	0.887	11.83
318.15 K, x1 = 0.9125	0.843	12.15
318.15 K, x1 = 0.9447	0.797	12.45
318.15 K, x1 = 1	0.719	12.9

Source: a compilation of properties of binary mixtures (doi:10.1016/j.molliq.2022.118621)
